From US9630961B2, “Arginine methyltransferase inhibitors and uses thereof” (Epizyme, Inc., priority 2013, dated 2017)

tested on: mono-methyl arginine in RKO cells; assay: RKO Methylation Assay, In Cell Western for mono-methyl arginine and DNA content; type: cell-based; settings: Homo sapiens, 72 hours, percent activation of mono-methyl arginine signal
Excerpt: RKO Methylation Assay RKO adherent cells were purchased from ATCC (American Type Culture Collection), Manassas, Va., USA. DMEM/Glutamax medium, penicillin-streptomycin, heat inactivated fetal bovine serum, 0.05% trypsin and D-PBS were purchased from Life Technologies, Grand Island, N.Y., USA. Odyssey blocking buffer, 800CW goat anti-rabbit IgG (H+L) antibody, and Licor Odyssey infrared scanner were purchased from Licor Biosciences, Lincoln, Nebr., USA. Mono-methyl arginine antibody was purchased from Cell Signaling Technology, Danvers, Mass., USA. Methanol was purchased from VWR, Franklin, Mass., USA. 10% Tween 20 was purchased from KPL, Inc., Gaithersburg, Md., USA. DRAQ5 was purchased from Biostatus Limited, Leicestershire, UK. RKO adherent cells were maintained in growth medium (DMEM/Glutamax medium supplemented with 10% v/v heat inactivated fetal bovine serum and 100 units/mL penicillin-streptomycin) and cultured at 37° C. under 5% CO2. Cell Treatment, in Cell Western (ICW) for Detection of Mono-Methyl Arginine and DNA Content. RKO cells were seeded in assay medium at a concentration of 20,000 cells per mL to a poly-D-lysine coated 384 well culture plate (BD Biosciences 356697) with 50 μL per well. Compound (100 nL) from a 96-well source plate was added directly to 384 well cell plate. Plates were incubated at 37° C., 5% CO2 for 72 hours. After three days of incubation, plates were brought to room temperature outside of the incubator for ten minutes and blotted on paper towels to remove cell media. 50 μL of ice cold 100% methanol was added directly to each well and incubated for 30 min at room temperature. After 30 min, plates were transferred to a Biotek EL406 plate washer and washed 2 times with 100 μL per well of wash buffer (IX PBS). Next 60 μL per well of Odyssey blocking buffer (Odyssey Buffer with 0.1% Tween 20 (v/v)) were added to each plate and incubated 1 hour at room temperature. Blocking buffer was removed and 20 μL per well of primary antibody was added (mono-methyl arginine diluted 1:200 in Odyssey buffer with 0.1% Tween 20 (v/v)) and plates were incubated overnight (16 hours) at 4° C. Plates were washed 5 times with 100 μL per well of wash buffer. Next 20 μL per well of secondary antibody was added (1:200 800CW goat anti-rabbit IgG (H+L) antibody, 1:1000 DRAQ5 (Biostatus limited) in Odyssey buffer with 0.1% Tween 20 (v/v)) and incubated for 1 hour at room temperature. The plates were washed 5 times with 100 μL per well wash buffer then 2 times with 100 μL per well of water. Plates were allowed to dry at room temperature then imaged on the Licor Odyssey machine which measures integrated intensity at 700 nm and 800 nm wavelengths. Both 700 and 800 channels were scanned. Calculations: First, the ratio for each well was determined by: Each plate included fourteen control wells of DMSO only treatment (minimum activation) as well as fourteen control wells for maximum activation treated with 20 μM of a reference compound. The average of the ratio values for each control type was calculated and used to determine the percent activation for each test well in the plate. Reference compound was serially diluted three-fold in DMSO for a total of nine test concentrations, beginning at 20 μM. Percent activation was determined and EC30 curves were generated using triplicate wells per concentration of compound.

`CN(CCN)Cc1c[nH]nc1-c1cc[nH]n1` [Compound 14] and `CN(CCN)Cc1c[nH]nc1-c1cn[nH]c1` [Compound 12] cannot be ordered by EC30: ≥ 12 µM for the first, ≥ 12 µM for the second.

First: CN(CCN)Cc1c[nH]nc1-c1ccc2[nH]ncc2c1 [Compound 27, N^1-((3-(1H-indazol-5-yl)-1H-pyrazol-4-yl)methyl)-N^1-methylethane-1,2-diamine]
Second: CN(CCN)Cc1c[nH]nc1-c1ccc2cnn(C)c2c1 [Compound 19, N^1-methyl-N^1-((3-(1-methyl-1H-indazol-6-yl)-1H-pyrazol-4-yl)methyl)ethane-1,2-diamine]
The EC30 of the first is lower: ≤ 3 µM for the first, 3.01 to 12 µM for the second.

`CN(CCN)Cc1c[nH]nc1-c1ccc2ncnn2c1` [Compound 20] and `CN(CCN)Cc1c[nH]nc1-c1ccc2nccn2c1` [Compound 21, N^1-((3-(imidazo[1,2-a]pyridin-6-yl)-1H-pyrazol-4-yl)methyl)-N^1-methylethane-1,2-diamine] cannot be ordered by EC30: ≥ 12 µM for the first, 3.01 to 12 µM for the second.

`CN(CCN)Cc1c[nH]nc1-c1cnn(CCO)c1` [Compound 18] and `CCn1cc(-c2n[nH]cc2CN(C)CCN)cn1` [Compound 16] cannot be ordered by EC30: ≥ 12 µM for the first, ≥ 12 µM for the second.

`CN(CCN)Cc1c[nH]nc1-c1cnn(-c2ccccc2)c1` [Compound 17] and `CN(CCN)Cc1c[nH]nc1-c1cnn(Cc2ccccc2)c1` [Compound 24, N^1-((1′-benzyl-3,4′-bi(1H-pyrazol)-4-yl)methyl)-N^1-methylethane-1,2-diamine] cannot be ordered by EC30: ≤ 3 µM for the first, ≤ 3 µM for the second.

`CN(CCN)Cc1c[nH]nc1-c1ccnn1C` [Compound 15] and `CN(CCN)Cc1c[nH]nc1-c1cnn(C)c1` [Compound 8] cannot be ordered by EC30: ≥ 12 µM for the first, ≥ 12 µM for the second.

`CN(CCN)Cc1c[nH]nc1-c1ccc2scnc2c1` [Compound 9] and `CN(CCN)Cc1c[nH]nc1-c1cnc2[nH]ccc2c1` [Compound 13] fall in the same range of EC30: 3.01 to 12 µM for the first, 3.01 to 12 µM for the second.

`CN(CCN)Cc1c[nH]nc1-c1cnc(C2CC2)nc1` [Compound 28] and `CN(CCN)Cc1c[nH]nc1-c1cncnc1` [Compound 4] cannot be ordered by EC30: ≥ 12 µM for the first, ≥ 12 µM for the second.

`Cc1n[nH]c(C)c1-c1n[nH]cc1CN(C)CCN` [Compound 25] and `CC(C)n1cc(-c2n[nH]cc2CN(C)CCN)cn1` [Compound 22] cannot be ordered by EC30: ≥ 12 µM for the first, 3.01 to 12 µM for the second.

With `CC(C)Cn1cc(-c2n[nH]cc2CN(C)CCN)cn1` [Compound 23, N^1-((2′-isobutyl-3,4′-bi(1H-pyrazol)-4-yl)methyl)-N^1-methylethane-1,2-diamine] the EC30 was ≤ 3 µM.
